From the supplement of paper PMC10307832 come the findings set out here.

What all share (assay): relative viability (nuclei count vs DMSO), 5 days (fraction); higher = more cells survive
Compound in test [1]: C[As](C)SC[C@H](NC(=O)CC[C@H](N)C(=O)O)C(=O)NCC(=O)O [Darinaparsin] + CS(=O)(=O)N1CCN(Cc2cc3nc(-c4cccc5[nH]ncc45)nc(N4CCOCC4)c3s2)CC1 [Pictilisib] (partner 1 µM)
An outline of the steps: (§1)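 Relative viability was taken as the ratio of nuclei in treated wells to nuclei in vehicle wells. Lung cancer cell lines in 1536-well plates received compounds by pin tool one day after seeding, either one drug alone or a fixed anchor-drug dose plus five library-drug doses (not always all listed) in √10 steps. Nuclei were counted on 4× images after 5 days of treatment, and values are medians of duplicate plates.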

Compound in the test “AZ628 + OSI-027”: CC1=C(C=C(C=C1)NC(=O)C2=CC(=CC=C2)C(C)(C)C#N)NC3=CC4=C(C=C3)N=CN(C4=O)C [AZ628] + COc1cccc2cc(-c3nc([C@H]4CC[C@H](C(=O)O)CC4)n4ncnc(N)c34)[nH]c12 [OSI-027] (partner 0.5 µM)
In a few lines: as §1

Compound in test [2]: C[As](C)SC[C@H](NC(=O)CC[C@H](N)C(=O)O)C(=O)NCC(=O)O [Darinaparsin] + O=C(CCCCCCC(=O)Nc1ccccc1)NO [Vorinostat] (partner 1 µM)
An outline of the steps:
as §1

Compound in the test “QS11 + Tozasertib”: C1CC2=C(C1)C=C(C=C2)OC3=NC(=C4C(=N3)N(C=N4)CC5=CC=C(C=C5)C6=CC=CC=C6)N[C@@H](CC7=CC=CC=C7)CO [QS11] + Cc1cc(Nc2cc(N3CCN(C)CC3)nc(Sc3ccc(NC(=O)C4CC4)cc3)n2)n[nH]1 [Tozasertib] (partner 0.1 µM)
An outline of the steps: as §1

As for NCI-H1355, the relative viability in test [1] (first compound 0.08 µM) turned out to be 0.445; in test [1] (first compound 0.8 µM) it was 0.37; in test [1] (first compound 2.53 µM), 0.451; in test [1] (first compound 8 µM), 0.456; with AZ628 + OSI-027 (first compound 0.08 µM) it was 0.435; with AZ628 + OSI-027 (first compound 0.253 µM), 0.327. Also, the relative viability was found to be 0.311 with AZ628 + OSI-027 (first compound 0.8 µM); 0.308 with AZ628 + OSI-027 (first compound 2.53 µM); 0.298 with AZ628 + OSI-027 (first compound 8 µM); 0.703 in test [2] (first compound 0.08 µM); 0.617 in test [2] (first compound 0.8 µM); 0.488 in test [2] (first compound 2.53 µM). Moreover, the relative viability in test [2] (first compound 8 µM) worked out at 0.683; with QS11 + Tozasertib (first compound 0.08 µM) it was 0.569; with QS11 + Tozasertib (first compound 0.253 µM), 0.564; in the test with QS11 + Tozasertib (first compound 0.8 µM), 0.425; with QS11 + Tozasertib (first compound 2.53 µM), 0.452; with QS11 + Tozasertib (first compound 8 µM) it was 0.413.
On to NCI-H1395, for which the relative viability in test [1] (first compound 0.08 µM) is 0.538; in test [1] (first compound 0.8 µM), 0.617; in test [1] (first compound 2.53 µM), 0.619; in test [1] (first compound 8 µM) it was 0.568; with AZ628 + OSI-027 (first compound 0.08 µM), 0.652; in the test with AZ628 + OSI-027 (first compound 0.253 µM), 0.544. Further, the relative viability with AZ628 + OSI-027 (first compound 0.8 µM) amounted to 0.625; with AZ628 + OSI-027 (first compound 2.53 µM), 0.56; with AZ628 + OSI-027 (first compound 8 µM) it was 0.554; in test [2] (first compound 0.08 µM) it was 0.813; in test [2] (first compound 0.8 µM), 0.722; in test [2] (first compound 2.53 µM) it was 0.582. In addition, the relative viability in test [2] (first compound 8 µM) is 0.589; in the test with QS11 + Tozasertib (first compound 0.08 µM) it was 0.728; in the test with QS11 + Tozasertib (first compound 0.253 µM), 0.697; with QS11 + Tozasertib (first compound 0.8 µM), 0.748; in the test with QS11 + Tozasertib (first compound 2.53 µM), 0.686; in the test with QS11 + Tozasertib (first compound 8 µM), 0.72.
Consider NCI-H1437, for which the relative viability in test [1] (first compound 0.08 µM) was found to be 0.468; in test [1] (first compound 0.8 µM) it was 0.409; in test [1] (first compound 2.53 µM), 0.395; in test [1] (first compound 8 µM), 0.391; with AZ628 + OSI-027 (first compound 0.08 µM), 0.896; in the test with AZ628 + OSI-027 (first compound 0.253 µM), 0.836. In addition, the relative viability with AZ628 + OSI-027 (first compound 0.8 µM) was 0.723; with AZ628 + OSI-027 (first compound 2.53 µM) it was 0.934; in the test with AZ628 + OSI-027 (first compound 8 µM) it was 0.904; in test [2] (first compound 0.08 µM), 0.907; in test [2] (first compound 0.8 µM), 0.854; in test [2] (first compound 2.53 µM), 0.911. Also, the relative viability in test [2] (first compound 8 µM) was 1.06; in the test with QS11 + Tozasertib (first compound 0.08 µM) it was 0.44; with QS11 + Tozasertib (first compound 0.253 µM), 0.45; in the test with QS11 + Tozasertib (first compound 0.8 µM), 0.398; with QS11 + Tozasertib (first compound 2.53 µM), 0.344; in the test with QS11 + Tozasertib (first compound 8 µM), 0.304.
For NCI-H1650, the relative viability in test [1] (first compound 0.08 µM) is 0.666; in test [1] (first compound 0.8 µM), 0.503; in test [1] (first compound 2.53 µM), 0.623; in test [1] (first compound 8 µM) it was 0.59; in the test with AZ628 + OSI-027 (first compound 0.08 µM), 0.642; in the test with AZ628 + OSI-027 (first compound 0.253 µM), 0.793. Moreover, the relative viability in the test with AZ628 + OSI-027 (first compound 0.8 µM) turned out to be 0.666; in the test with AZ628 + OSI-027 (first compound 2.53 µM), 0.557; with AZ628 + OSI-027 (first compound 8 µM), 0.458; in test [2] (first compound 0.08 µM) it was 0.64; in test [2] (first compound 0.8 µM), 0.499; in test [2] (first compound 2.53 µM) it was 0.628. Besides, the relative viability in test [2] (first compound 8 µM) was 0.683; in the test with QS11 + Tozasertib (first compound 0.08 µM) it was 0.244; with QS11 + Tozasertib (first compound 0.253 µM), 0.368; in the test with QS11 + Tozasertib (first compound 0.8 µM), 0.436; in the test with QS11 + Tozasertib (first compound 2.53 µM), 0.358; with QS11 + Tozasertib (first compound 8 µM) it was 0.402.
On to NCI-H1651, for which the relative viability in test [1] (first compound 0.08 µM) turned out to be 0.721; in test [1] (first compound 0.8 µM), 0.554; in test [1] (first compound 2.53 µM), 0.471; in test [1] (first compound 8 µM), 0.865; with AZ628 + OSI-027 (first compound 0.08 µM) it was 0.577; in the test with AZ628 + OSI-027 (first compound 0.253 µM), 0.703. For the same cell line, the relative viability was found to be 0.649 in the test with AZ628 + OSI-027 (first compound 0.8 µM); 0.579 in the test with AZ628 + OSI-027 (first compound 2.53 µM); 0.659 with AZ628 + OSI-027 (first compound 8 µM); 0.523 in test [2] (first compound 0.08 µM); 0.558 in test [2] (first compound 0.8 µM); 0.58 in test [2] (first compound 2.53 µM). Also, the relative viability in test [2] (first compound 8 µM) was 0.571; in the test with QS11 + Tozasertib (first compound 0.08 µM), 0.819; in the test with QS11 + Tozasertib (first compound 0.253 µM), 0.698; with QS11 + Tozasertib (first compound 0.8 µM), 0.678; with QS11 + Tozasertib (first compound 2.53 µM), 0.548; with QS11 + Tozasertib (first compound 8 µM), 0.507.
NCI-H1666: the relative viability in test [1] (first compound 0.08 µM) is 0.418; in test [1] (first compound 0.8 µM), 0.458; in test [1] (first compound 2.53 µM) it was 0.454; in test [1] (first compound 8 µM) it was 0.53; in the test with AZ628 + OSI-027 (first compound 0.08 µM), 0.827; with AZ628 + OSI-027 (first compound 0.253 µM) it was 0.789. Moreover, the relative viability in the test with AZ628 + OSI-027 (first compound 0.8 µM) came out at 0.676; with AZ628 + OSI-027 (first compound 2.53 µM) it was 0.744; with AZ628 + OSI-027 (first compound 8 µM), 0.656; in test [2] (first compound 0.08 µM), 1.2; in test [2] (first compound 0.8 µM) it was 0.899; in test [2] (first compound 2.53 µM) it was 1.18. The relative viability in test [2] (first compound 8 µM) was 1.08; with QS11 + Tozasertib (first compound 0.08 µM), 0.61; with QS11 + Tozasertib (first compound 0.253 µM), 0.532; in the test with QS11 + Tozasertib (first compound 0.8 µM) it was 0.515; with QS11 + Tozasertib (first compound 2.53 µM), 0.521; in the test with QS11 + Tozasertib (first compound 8 µM), 0.383.
Take NCI-H1734: the relative viability stood at 0.534 in test [1] (first compound 0.08 µM); 0.473 in test [1] (first compound 0.8 µM); 0.421 in test [1] (first compound 2.53 µM); 0.559 in test [1] (first compound 8 µM); 0.604 with AZ628 + OSI-027 (first compound 0.08 µM); 0.565 with AZ628 + OSI-027 (first compound 0.253 µM). Also, the relative viability was 0.512 with AZ628 + OSI-027 (first compound 0.8 µM); 0.46 with AZ628 + OSI-027 (first compound 2.53 µM); 0.293 in the test with AZ628 + OSI-027 (first compound 8 µM); 0.934 in test [2] (first compound 0.08 µM); 0.752 in test [2] (first compound 0.8 µM); 0.773 in test [2] (first compound 2.53 µM). In addition, the relative viability in test [2] (first compound 8 µM) was 0.746; with QS11 + Tozasertib (first compound 0.08 µM), 0.25; with QS11 + Tozasertib (first compound 0.253 µM) it was 0.273; with QS11 + Tozasertib (first compound 0.8 µM), 0.28; with QS11 + Tozasertib (first compound 2.53 µM), 0.246; with QS11 + Tozasertib (first compound 8 µM) it was 0.316.
